# In ChEMBL document CHEMBL6078621, “Macrocyclic-based strategy in drug design: From lab to the clinic” (Eur J Med Chem, 2024):
# Starred links: 1 amine or outer side, 2 acyl side, 3 side chain; linkers in the order of their positions; H or OH if unused. Positions of bridges follow the written chain, without caps; N, C: chain ends. Non-standard residues stand in square brackets, D forms with d. Residues, ends and D or L forms follow the SMILES beside them. *: point of attachment. Phe(4-Cl) = N[C@@H](Cc1ccc(Cl)cc1)C(=O)O; 2Thi = N[C@@H](Cc1cccs1)C(=O)O; Agmatine = N=C(N)NCCCCN*; X1 = O=C(CCC[*:2])[*:1]; Mpa = O=C(O)CCS; NEt2 = CCN(CC)*
# Tests used:
# [1] = tested on: Huh-7; assay: Cytotoxicity against human Huh-7 cells assessed as inhibition of cell viability incubated for 24 hrs by MTT assay; format: functional
# [2] = Intrinsic clearance in human liver microsomes; format: ADME, Microsome
# [3] = Plasma clearance in Sprague-Dawley rat at 1 mg/kg, iv measured upto 24 hrs by LC-MS/MS analysis; format: ADME, organism-based
# [4] = AUC in Sprague-Dawley rat at 2 mg/kg, iv by LC-MS/MS analysis; format: ADME, organism-based; conditions: in vivo
# [5] = AUC in Sprague-Dawley rat at 10 mg/kg, po by LC-MS/MS analysis; format: ADME, organism-based; conditions: in vivo
# [6] = Microsomal stability in human liver microsomes assessed as intrinsic clearance; format: ADME, Microsome
# [7] = Half life in dog; format: ADME, Canis lupus familiaris; conditions: in vivo
# [8] = Half life in mouse; format: ADME, organism-based; conditions: in vivo
# [9] = Half life in rat; format: ADME; conditions: in vivo
# [10] = Clearance in Sprague-Dawley rat at 0.5 mg/kg, iv by LC-MS/MS analysis; format: ADME, organism-based; conditions: in vivo
# [11] = Oral bioavailability in Sprague-Dawley rat at 5 mg/kg by LC-MS/MS analysis; format: ADME, organism-based; conditions: in vivo
# [12] = AUC in Wistar rat; format: ADME; conditions: in vivo
# [13] = Oral bioavailability in human; format: ADME, organism-based; conditions: in vivo
# [14] = Solubility of the compound; format: physicochemical
# [15] = in vitro; conditions: human, liver microsomes
# [16] = Cmax in human at 8 mg/kg, po; format: ADME, organism-based; conditions: in vivo
# [17] = Plasma protein binding in human; format: ADME, cell-free; conditions: read-out: PPB
smiles,measurement,setting,value
COc1ccc2c(O[C@@H]3C[C@H]4C(=O)N[C@]5(C(=O)NS(=O)(=O)C6CC6)C[C@H]5/C=C\CCCCN(C)C(=O)[C@@H]4C3)cc(-c3ccccc3)nc2c1,CC50,[1],> 20 µM
same,CLH,[2],46 µL/min/mg
same,clearance,[3],46.5 mL/min/kg
COc1ccc2c(O[C@@H]3C[C@H]4C(=O)N[C@]5(C(=O)NS(=O)(=O)C6CC6)C[C@H]5/C=C\CCCCN(C)C(=O)[C@@H]4C3)cc(-c3nc(C(C)C)cs3)nc2c1C,AUC,[4],5.21 µM·h
same,AUC,[5],2.79 µM·h
same,CLH,[6],6 µL/min/mg
C/C1=C/C=C/[C@H](C)[C@H](O)[C@@H](C)[C@@H](O)[C@@H](C)[C@H](OC(=O)O)[C@H](C)[C@@H](OO)/C=C/O[C@@]2(C)Oc3c(C)c(O)c4c(O)c(c(/C=N/N5CCC(N(C)C6([C@@H]7CCN(c8cc9c(C%10CC%10)cc(C(=O)O)c(=O)n9cc8F)C7)CC6)CC5)c(O)c4c3C2=O)CC1=O,half-life,[7],96 min
same,half-life,[8],24 min
same,half-life,[9],24 min
CC(C)[C@@H]1NC(=O)[C@H](Cc2ccccc2)NC(=O)[C@H](Cc2ccc(O)cc2)NC(=O)CCSSC[C@@H](C(=O)N2CCC[C@H]2C(=O)N[C@H](CCCNC(=N)N)C(=O)NCC(N)=O)NC(=O)[C@H](CC(N)=O)NC1=O ([Mpa]YFVNCP[dR]G-NH2; disulfide 1-6),clearance,[10],9.6 mL/min/kg
same,bioavailability,[11],31%
CC(C)[C@@H]1NC(=O)[C@H](Cc2cccs2)NC(=O)[C@H](Cc2ccc(Cl)cc2)NC(=O)CCCSC[C@@H](C(=O)N2CCC[C@H]2C(=O)NCCCCNC(=N)N)NC(=O)[C@H](CC(N)=O)NC1=O ([Phe(4-Cl)][2Thi]VNCP-Agmatine; linker N-5 via X1),clearance,[10],14 mL/min/kg
CCN(CC)C(=O)[C@@H](CCCNC(=N)N)NC(=O)[C@@H]1CCCN1C(=O)[C@@H]1CSCCCC(=O)N[C@@H](Cc2ccc(Cl)cc2)C(=O)N[C@@H](Cc2cccs2)C(=O)N[C@@H](C(C)C)C(=O)N[C@@H](CC(N)=O)C(=O)N1 ([Phe(4-Cl)][2Thi]VNCP[dR]-NEt2; linker N-5 via X1),clearance,[10],42 mL/min/kg
NC(=O)CC[C@@H]1NC(=O)[C@H](Cc2ccccc2)NC(=O)[C@H](Cc2ccc(O)cc2)NC(=O)CCSSC[C@@H](C(=O)N2CCC[C@H]2C(=O)N[C@H](CCCN=C(N)N)C(=O)NCC(N)=O)NC(=O)[C@H](CC(N)=O)NC1=O [DESMOPRESSIN],bioavailability,[11],41%
C[C@H]1Oc2cc(cnc2N)-c2c(nn(C)c2C#N)CN(C)C(=O)c2ccc(F)cc21 [LORLATINIB],AUC,[12],3.48 µM·h
C[C@@H]1CCC[C@H](n2cnc(-c3cc(Cl)ccc3-n3cc(Cl)nn3)cc2=O)c2cc(ccn2)-c2c(cnn2C(F)F)NC1=O [MILVEXIAN],bioavailability,[13],18%
C1=C/COCc2cc(ccc2OCCN2CCCC2)Nc2nccc(n2)-c2cccc(c2)COC/1 [PACRITINIB],solubility,[14],> 150 µg/mL
same,half-life,[15],> 60 min
C[C@@H]1CN[C@@H](C2CC2)C(=O)N(C)[C@H](C)C(=O)N[C@H](Cc2ccc(F)cc2)C(=O)NCCCc2ccccc2O1 [ULIMORELIN],Cmax,[16],1400 nM
CN1C/C=C/CCOc2cccc(c2)-c2ccnc(n2)Nc2cccc(c2)C1 [ZOTIRACICLIB],fraction unbound,[17],0.001
